Measured values: patent publication US20260325685A1, “Radiopharmaceutical Compositions Targeting Carbonic Anhydrase IX and Uses Thereof” (RayzeBio, Inc., priority 2023, published 2026)
Where two headings read alike, the source gives them in different places.

Key:
human CA-IX = target: T1, human CA-IX (Homo sapiens, UniProt Q16790); assay: Surface Plasmon Resonance (SPR) binding kinetics to recombinant human CA-IX (Biacore 8K, single-cycle kinetics, 1:1 binding model)
T1 construct: purchased Acro CA9-H82E3
In short: (§1)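 Recombinant human CA-IX or CA-XII captured on streptavidin chips (1200-1800 RU) in PBS-P+, pH 7.4. Single-cycle kinetics over 9 analyte concentrations (100-0.39 nM) with 1% DMSO, 120 s association, 1200 s dissociation, 25° C. Reference- and DMSO-corrected curves fit to 1:1 model for on/off rates.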

human CA-XII = target: T2, human CA-XII (Homo sapiens, UniProt O43570); assay: Surface Plasmon Resonance (SPR) binding kinetics to recombinant human CA-XII (Biacore 8K, single-cycle kinetics, 1:1 binding model)
T2 construct: purchased Creative BioMart CA12-261H
In short: as §1

[1] = Chelated Metal: Lu-175; SPR, 25° C., pH 7.4; read-out: CAIX KD
[2] = Chelated Metal: Lu-175, 25° C., pH 7.4, read-out: CAXII KD
[3] = Chelated Metal: None; SPR, 25° C., pH 7.4; read-out: CAIX KD
[4] = KD ratio CAXII/CAIX; Chelated Metal: None
[5] = Chelated Metal: None, 25° C., pH 7.4, read-out: CAXII KD
[6] = read-out: CAIX KD; Chelated Metal: Lu-175; SPR, 25° C., pH 7.4
[7] = read-out: CAXII KD, Chelated Metal: Lu-175, 25° C., pH 7.4

T2 sequence (O43570 25-354): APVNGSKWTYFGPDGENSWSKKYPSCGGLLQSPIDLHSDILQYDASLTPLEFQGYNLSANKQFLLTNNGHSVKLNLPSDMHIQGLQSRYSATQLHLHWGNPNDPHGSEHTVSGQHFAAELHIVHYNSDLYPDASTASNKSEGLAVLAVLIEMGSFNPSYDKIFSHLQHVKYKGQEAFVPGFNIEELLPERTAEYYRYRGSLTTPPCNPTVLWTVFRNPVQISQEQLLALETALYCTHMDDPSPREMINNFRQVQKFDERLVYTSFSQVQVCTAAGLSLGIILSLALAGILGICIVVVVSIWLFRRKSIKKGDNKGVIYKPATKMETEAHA

Row | SMILES | Kd (human CA-IX; [1]) [nM] | Kd (human CA-XII; [2]) [nM] | further results
1 | NS(=O)(=O)c1nnc(NC(=O)C23CC(c4cn(CCNC(=O)[C@@H]5CN(C(=O)CN6CCN(CC(=O)O)CCN(CC(=O)O)CCN(CC(=O)O)CC6)CCN5C(=O)C[C@H](NC(=O)C[C@H](NC(=O)C5CC6(C5)CC(F)(F)C6)C(=O)O)C(=O)O)nn4)(C2)C3)s1.[Lu+3] [Compound 109.61] | 1 to 2.5 | 2.5 to 10 | –
2 | CC(CCCC(=O)N[C@@H](CC(=O)N[C@@H](CC(=O)N1CCN(C(=O)CN2CCN(CC(=O)O)CCN(CC(=O)O)CCN(CC(=O)O)CC2)C[C@H]1C(=O)NCCn1cc(C23CC(C(=O)Nc4nnc(S(N)(=O)=O)s4)(C2)C3)nn1)C(=O)O)C(=O)O)(c1ccc(O)cc1)c1ccc(O)cc1 [Compound 109.62] | – | – | Kd (human CA-IX; [3]): < 1 nM; Ratio (CAXII/CAIX) (human CA-IX; [4]): *** (10 < *** ≤ 50); Kd (human CA-XII; [5]): > 10 nM
3 | NS(=O)(=O)c1nnc(NC(=O)C23CC(c4cn(CCNC(=O)[C@@H]5CN(C(=O)CN6CCN(CC(=O)O)CCN(CC(=O)O)CCN(CC(=O)O)CC6)CCN5C(=O)C[C@H](NC(=O)C[C@H](NC(=O)Cc5ccc(C6CC6)cc5)C(=O)O)C(=O)O)nn4)(C2)C3)s1 [Compound 109.63] | – | – | Kd (human CA-IX; [3]): < 1 nM; Ratio (CAXII/CAIX) (human CA-IX; [4]): *** (10 < *** ≤ 50); Kd (human CA-XII; [5]): 2.5 to 10 nM
4 | NS(=O)(=O)c1nnc(NC(=O)C23CC(c4cn(CCNC(=O)[C@@H]5CN(C(=O)CN6CCN(CC(=O)O)CCN(CC(=O)O)CCN(CC(=O)O)CC6)CCN5C(=O)C[C@H](NC(=O)C[C@H](NC(=O)c5cccc(C6CC6)c5)C(=O)O)C(=O)O)nn4)(C2)C3)s1.[Lu+3] [Compound 109] | – | – | Kd (human CA-IX; [6]): < 1 nM; Kd (human CA-XII; [7]): 2.5 to 10 nM
5 | NS(=O)(=O)c1nnc(NC(=O)C23CCC(c4cn(CCNC(=O)[C@@H]5CN(C(=O)CN6CCN(CC(=O)O)CCN(CC(=O)O)CCN(CC(=O)O)CC6)CCN5C(=O)CC[C@H](NC(=O)C[C@H](NCc5ccccc5)C(=O)O)C(=O)O)nn4)(CC2)CC3)s1.[Lu+3] [Compound 110] | – | – | Kd (human CA-IX; [6]): < 1 nM; Kd (human CA-XII; [7]): < 1 nM
6 | CC(CCNC(=O)c1cnc(N[C@@H](CC(=O)N2CCN(C(=O)CN3CCN(CC(=O)O)CCN(CC(=O)O)CCN(CC(=O)O)CC3)C[C@@H]2C(=O)NCCn2cc(C34CC(C(=O)Nc5nnc(S(N)(=O)=O)s5)(C3)C4)nn2)C(=O)O)nc1)(c1ccc(O)cc1)c1ccc(O)cc1.[Lu+3] [Compound 111.1] | 1 to 2.5 | > 10 | –
7 | NS(=O)(=O)c1nnc(NC(=O)C23CC(c4cn(CCNC(=O)[C@@H]5CN(C(=O)CN6CCN(CC(=O)O)CCN(CC(=O)O)CCN(CC(=O)O)CC6)CCN5C(=O)C[C@H](Nc5ncc(C(=O)NCc6ccc(C7CC7)cn6)cn5)C(=O)O)nn4)(C2)C3)s1.[Lu+3] [Compound 111.2] | 2.5 to 10 | > 10 | –
8 | NS(=O)(=O)c1nnc(NC(=O)C23CC(c4cn(CCNC(=O)[C@@H]5CN(C(=O)CN6CCN(CC(=O)O)CCN(CC(=O)O)CCN(CC(=O)O)CC6)CCN5C(=O)C[C@H](Nc5ncc(C(=O)NCc6ccc(C7CC7)cc6)cn5)C(=O)O)nn4)(C2)C3)s1.[Lu+3] [Compound 111.3] | 1 to 2.5 | > 10 | –
9 | NS(=O)(=O)c1nnc(NC(=O)C23CC(c4cn(CCNC(=O)[C@@H]5CN(C(=O)CN6CCN(CC(=O)O)CCN(CC(=O)O)CCN(CC(=O)O)CC6)CCN5C(=O)C[C@H](Nc5ncc(C(=O)N6CCC(c7ccc(O)cc7)(c7ccc(O)cc7)CC6)cn5)C(=O)O)nn4)(C2)C3)s1.[Lu+3] [Compound 111.4] | 2.5 to 10 | > 10 | –
10 | NS(=O)(=O)c1nnc(NC(=O)C23CC(c4cn(CCNC(=O)[C@@H]5CN(C(=O)CN6CCN(CC(=O)O)CCN(CC(=O)O)CCN(CC(=O)O)CC6)CCN5C(=O)C[C@H](Nc5ncc(C(=O)NCc6coc(C(F)(F)F)n6)cn5)C(=O)O)nn4)(C2)C3)s1.[Lu+3] [Compound 111.5] | 2.5 to 10 | > 10 | –
11 | NS(=O)(=O)c1nnc(NC(=O)C23CC(c4cn(CCNC(=O)[C@@H]5CN(C(=O)CN6CCN(CC(=O)O)CCN(CC(=O)O)CCN(CC(=O)O)CC6)CCN5C(=O)C[C@H](Nc5ncc(C(=O)NCc6ccc(C(F)F)cc6)cn5)C(=O)O)nn4)(C2)C3)s1.[Lu+3] [Compound 111.6] | 2.5 to 10 | > 10 | –
12 | NS(=O)(=O)c1nnc(NC(=O)C23CC(c4cn(CCNC(=O)[C@@H]5CN(C(=O)CN6CCN(CC(=O)O)CCN(CC(=O)O)CCN(CC(=O)O)CC6)CCN5C(=O)C[C@H](Nc5ncc(C(=O)NCCc6ccc(C(F)(F)F)cc6)cn5)C(=O)O)nn4)(C2)C3)s1.[Lu+3] [Compound 111.7] | 2.5 to 10 | > 10 | –
13 | NS(=O)(=O)c1nnc(NC(=O)C23CC(c4cn(CCNC(=O)[C@@H]5CN(C(=O)CN6CCN(CC(=O)O)CCN(CC(=O)O)CCN(CC(=O)O)CC6)CCN5C(=O)C[C@H](Nc5ncc(C(=O)NCCc6ccc(F)c(F)c6)cn5)C(=O)O)nn4)(C2)C3)s1.[Lu+3] [Compound 111.8] | 2.5 to 10 | > 10 | –
14 | NS(=O)(=O)c1nnc(NC(=O)C23CC(c4cn(CCNC(=O)[C@@H]5CN(C(=O)CN6CCN(CC(=O)O)CCN(CC(=O)O)CCN(CC(=O)O)CC6)CCN5C(=O)C[C@H](Nc5ncc(C(=O)NCC6CC7(CCC7)C6)cn5)C(=O)O)nn4)(C2)C3)s1.[Lu+3] [Compound 111.9] | 1 to 2.5 | > 10 | –
15 | NS(=O)(=O)c1nnc(NC(=O)C23CC(c4cn(CCNC(=O)[C@@H]5CN(C(=O)CN6CCN(CC(=O)O)CCN(CC(=O)O)CCN(CC(=O)O)CC6)CCN5C(=O)C[C@H](Nc5ncc(C(=O)NCc6n[nH]c7ccccc67)cn5)C(=O)O)nn4)(C2)C3)s1.[Lu+3] [Compound 111.10] | 2.5 to 10 | > 10 | –
16 | NS(=O)(=O)c1nnc(NC(=O)C23CC(c4cn(CCNC(=O)[C@@H]5CN(C(=O)CN6CCN(CC(=O)O)CCN(CC(=O)O)CCN(CC(=O)O)CC6)CCN5C(=O)C[C@H](Nc5ncc(C(=O)NCCc6ccc(C7CC7)cc6)cn5)C(=O)O)nn4)(C2)C3)s1.[Lu+3] [Compound 111.11] | 1 to 2.5 | > 10 | –
17 | NCCNC(=O)c1cnc(N[C@@H](CC(=O)N2CCN(C(=O)CN3CCN(CC(=O)O)CCN(CC(=O)O)CCN(CC(=O)O)CC3)C[C@H]2C(=O)NCCn2cc(C34CC(C(=O)Nc5nnc(S(N)(=O)=O)s5)(C3)C4)nn2)C(=O)O)nc1.[Lu+3] [Compound 111.12] | 2.5 to 10 | > 10 | –
18 | NS(=O)(=O)c1nnc(NC(=O)C23CC(c4cn(CCNC(=O)[C@@H]5CN(C(=O)CN6CCN(CC(=O)O)CCN(CC(=O)O)CCN(CC(=O)O)CC6)CCN5C(=O)C[C@H](Nc5ncc(C(=O)NCc6ccc(S(F)(F)(F)(F)F)cc6)cn5)C(=O)O)nn4)(C2)C3)s1.[Lu+3] [Compound 111] | – | – | Kd (human CA-IX; [6]): 2.5 to 10 nM; Kd (human CA-XII; [7]): > 10 nM
19 | NS(=O)(=O)c1nnc(NC(=O)C23CC(c4cn(CCNC(=O)[C@@H]5CN(C(=O)CN6CCN(CC(=O)O)CCN(CC(=O)O)CCN(CC(=O)O)CC6)CCN5C(=O)CNC(=O)C5(C(=O)O)CCN(C(=O)Cc6ccc7cn[nH]c7c6)CC5)nn4)(C2)C3)s1.[Lu+3] [Compound 112.1] | 2.5 to 10 | > 10 | –
20 | NS(=O)(=O)c1nnc(NC(=O)C23CCC(c4cn(CCNC(=O)[C@@H]5CN(C(=O)CN6CCN(CC(=O)O)CCN(CC(=O)O)CCN(CC(=O)O)CC6)CCN5C(=O)CNC(=O)C5(C(=O)O)CCN(C(=O)CCCc6ccc(I)cc6)CC5)nn4)(CC2)CC3)s1.[Lu+3] [Compound 112.2] | < 1 | 2.5 to 10 | –
21 | NS(=O)(=O)c1nnc(NC(=O)C23CC(c4cn(CCNC(=O)[C@@H]5CN(C(=O)CN6CCN(CC(=O)O)CCN(CC(=O)O)CCN(CC(=O)O)CC6)CCN5C(=O)CNC(=O)C5(C(=O)O)CCN(C(=O)CCCCc6ccc(O)cc6)CC5)nn4)(C2)C3)s1.[Lu+3] [Compound 112.3] | 1 to 2.5 | > 10 | –
